Experimental data taken from the supplement of paper PMC10307832.

Legend:
Test in all cases: relative viability (nuclei count vs DMSO), 5 days (fraction); higher = more cells survive
201T = test system: 201T
Procedure, shortened: (§1)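 Relative viability was taken as the ratio of nuclei in treated wells to nuclei in vehicle wells. Lung cancer cell lines in 1536-well plates received compounds by pin tool one day after seeding, either one drug alone or a fixed anchor-drug dose plus five library-drug doses (not always all listed) in √10 steps. Nuclei were counted on 4× images after 5 days of treatment, and values are medians of duplicate plates.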

BEN = test system: BEN
Procedure, shortened: as §1

EMC-BAC-2 = test system: EMC-BAC-2
Procedure, shortened: as §1

HARA = test system: HARA
Procedure, shortened: as §1

HCC-44 = test system: HCC-44
Procedure, shortened: as §1

LCLC-103H = test system: LCLC-103H
Procedure, shortened: as §1

LOU-NH91 = test system: LOU-NH91
Procedure, shortened: as §1

NCI-H1395 = test system: NCI-H1395
Procedure, shortened: as §1

NCI-H1666 = test system: NCI-H1666
Procedure, shortened: as §1

NCI-H1993 = test system: NCI-H1993
Procedure, shortened: as §1

NCI-H2009 = test system: NCI-H2009
Procedure, shortened: as §1

NCI-H2023 = test system: NCI-H2023
Procedure, shortened: as §1

NCI-H2087 = test system: NCI-H2087
Procedure, shortened: as §1

NCI-H2126 = test system: NCI-H2126
Procedure, shortened: as §1

NCI-H2347 = test system: NCI-H2347
Procedure, shortened: as §1

NCI-H23 = test system: NCI-H23
Procedure, shortened: as §1

NCI-H3122 = test system: NCI-H3122
Procedure, shortened: as §1

NCI-H441 = test system: NCI-H441
Procedure, shortened: as §1

NCI-H596 = test system: NCI-H596
Procedure, shortened: as §1

NCI-H647 = test system: NCI-H647
Procedure, shortened: as §1

NCI-H650 = test system: NCI-H650
Procedure, shortened: as §1

NCI-H727 = test system: NCI-H727
Procedure, shortened: as §1

NCI-H838 = test system: NCI-H838
Procedure, shortened: as §1

With `Oc1nc(-c2ccc(C(F)(F)F)cc2)nc2c1CSCC2` [XAV939] + N=C(N)NC(=N)NCCc1ccccc1 [Phenformin] (partner 250 µM) as the compound, how does the relative viability (201T; first compound 0.08 µM) read?
Its relative viability is 0.475.

What about the relative viability (201T; first compound 0.253 µM) of the same compound?
Its relative viability is 0.421.

What about the relative viability (201T; first compound 0.8 µM) of the same compound?
Its relative viability is 0.364.

What about the relative viability (201T; first compound 2.53 µM) of the same compound?
The relative viability was 0.421.

And the relative viability (BEN; first compound 0.08 µM)?
The relative viability was 0.245.

What about the relative viability (BEN; first compound 0.253 µM) of the same compound?
The relative viability was 0.226.

And the relative viability (BEN; first compound 0.8 µM)?
Its relative viability is 0.264.

What about the relative viability (BEN; first compound 2.53 µM) of the same compound?
The relative viability was 0.243.

And the relative viability (EMC-BAC-2; first compound 0.08 µM)?
The relative viability was 0.551.

And the relative viability (EMC-BAC-2; first compound 0.253 µM)?
The relative viability was 0.459.

What about the relative viability (EMC-BAC-2; first compound 0.8 µM) of the same compound?
Its relative viability is 0.424.

And the relative viability (EMC-BAC-2; first compound 2.53 µM)?
The relative viability was 0.288.

And the relative viability (HARA; first compound 0.08 µM)?
The relative viability was 0.425.

What about the relative viability (HARA; first compound 0.253 µM) of the same compound?
Its relative viability is 0.448.

What about the relative viability (HARA; first compound 0.8 µM) of the same compound?
The relative viability was 0.452.

What about the relative viability (HARA; first compound 2.53 µM) of the same compound?
Its relative viability is 0.432.

What about the relative viability (HCC-44; first compound 0.08 µM) of the same compound?
The relative viability was 0.239.

And the relative viability (HCC-44; first compound 0.253 µM)?
The relative viability was 0.219.

And the relative viability (HCC-44; first compound 0.8 µM)?
Its relative viability is 0.221.

And the relative viability (HCC-44; first compound 2.53 µM)?
Its relative viability is 0.259.

And the relative viability (LCLC-103H; first compound 0.08 µM)?
The relative viability was 0.369.

And the relative viability (LCLC-103H; first compound 0.253 µM)?
The relative viability was 0.29.

What about the relative viability (LCLC-103H; first compound 0.8 µM) of the same compound?
Its relative viability is 0.304.

What about the relative viability (LCLC-103H; first compound 2.53 µM) of the same compound?
The relative viability was 0.315.

And the relative viability (LOU-NH91; first compound 0.08 µM)?
Its relative viability is 0.672.

And the relative viability (LOU-NH91; first compound 0.253 µM)?
The relative viability was 0.627.

And the relative viability (LOU-NH91; first compound 0.8 µM)?
Its relative viability is 0.702.

What about the relative viability (LOU-NH91; first compound 2.53 µM) of the same compound?
The relative viability was 0.618.

What about the relative viability (NCI-H1395; first compound 0.08 µM) of the same compound?
Its relative viability is 0.429.

And the relative viability (NCI-H1395; first compound 0.253 µM)?
The relative viability was 0.443.

And the relative viability (NCI-H1395; first compound 0.8 µM)?
Its relative viability is 0.438.

And the relative viability (NCI-H1395; first compound 2.53 µM)?
The relative viability was 0.462.

What about the relative viability (NCI-H1666; first compound 0.08 µM) of the same compound?
The relative viability was 0.561.

What about the relative viability (NCI-H1666; first compound 0.253 µM) of the same compound?
The relative viability was 0.497.

And the relative viability (NCI-H1666; first compound 0.8 µM)?
Its relative viability is 0.555.

And the relative viability (NCI-H1666; first compound 2.53 µM)?
Its relative viability is 0.555.

And the relative viability (NCI-H1993; first compound 0.08 µM)?
The relative viability was 0.479.

What about the relative viability (NCI-H1993; first compound 0.253 µM) of the same compound?
Its relative viability is 0.526.

What about the relative viability (NCI-H1993; first compound 0.8 µM) of the same compound?
Its relative viability is 0.524.

What about the relative viability (NCI-H1993; first compound 2.53 µM) of the same compound?
Its relative viability is 0.511.

And the relative viability (NCI-H2009; first compound 0.08 µM)?
Its relative viability is 0.524.

What about the relative viability (NCI-H2009; first compound 0.253 µM) of the same compound?
The relative viability was 0.484.

And the relative viability (NCI-H2009; first compound 0.8 µM)?
Its relative viability is 0.421.

And the relative viability (NCI-H2009; first compound 2.53 µM)?
Its relative viability is 0.441.

What about the relative viability (NCI-H2023; first compound 0.08 µM) of the same compound?
The relative viability was 0.424.

What about the relative viability (NCI-H2023; first compound 0.253 µM) of the same compound?
The relative viability was 0.391.

What about the relative viability (NCI-H2023; first compound 0.8 µM) of the same compound?
The relative viability was 0.365.

And the relative viability (NCI-H2023; first compound 2.53 µM)?
The relative viability was 0.402.

What about the relative viability (NCI-H2087; first compound 0.08 µM) of the same compound?
The relative viability was 0.6.

And the relative viability (NCI-H2087; first compound 0.253 µM)?
The relative viability was 0.455.

What about the relative viability (NCI-H2087; first compound 0.8 µM) of the same compound?
The relative viability was 0.433.

What about the relative viability (NCI-H2087; first compound 2.53 µM) of the same compound?
Its relative viability is 0.395.

And the relative viability (NCI-H2126; first compound 0.08 µM)?
The relative viability was 0.577.

And the relative viability (NCI-H2126; first compound 0.253 µM)?
Its relative viability is 0.494.

And the relative viability (NCI-H2126; first compound 0.8 µM)?
Its relative viability is 0.48.

And the relative viability (NCI-H2126; first compound 2.53 µM)?
Its relative viability is 0.516.

And the relative viability (NCI-H2347; first compound 0.08 µM)?
The relative viability was 0.396.

And the relative viability (NCI-H2347; first compound 2.53 µM)?
The relative viability was 0.338.

What about the relative viability (NCI-H23; first compound 0.08 µM) of the same compound?
The relative viability was 0.892.

And the relative viability (NCI-H23; first compound 0.253 µM)?
The relative viability was 0.722.

And the relative viability (NCI-H23; first compound 0.8 µM)?
Its relative viability is 0.613.

What about the relative viability (NCI-H23; first compound 2.53 µM) of the same compound?
Its relative viability is 0.806.

And the relative viability (NCI-H3122; first compound 0.08 µM)?
The relative viability was 0.38.

And the relative viability (NCI-H3122; first compound 0.253 µM)?
Its relative viability is 0.336.

What about the relative viability (NCI-H3122; first compound 0.8 µM) of the same compound?
Its relative viability is 0.338.

What about the relative viability (NCI-H3122; first compound 2.53 µM) of the same compound?
Its relative viability is 0.39.

And the relative viability (NCI-H441; first compound 0.08 µM)?
Its relative viability is 0.856.

What about the relative viability (NCI-H441; first compound 0.253 µM) of the same compound?
Its relative viability is 0.861.

What about the relative viability (NCI-H441; first compound 0.8 µM) of the same compound?
Its relative viability is 1.

What about the relative viability (NCI-H441; first compound 2.53 µM) of the same compound?
The relative viability was 0.851.

What about the relative viability (NCI-H596; first compound 0.08 µM) of the same compound?
Its relative viability is 0.699.

What about the relative viability (NCI-H596; first compound 0.253 µM) of the same compound?
The relative viability was 0.673.

And the relative viability (NCI-H596; first compound 0.8 µM)?
Its relative viability is 0.764.

What about the relative viability (NCI-H596; first compound 2.53 µM) of the same compound?
Its relative viability is 0.774.

And the relative viability (NCI-H647; first compound 0.08 µM)?
The relative viability was 0.553.

What about the relative viability (NCI-H647; first compound 0.253 µM) of the same compound?
Its relative viability is 0.438.

What about the relative viability (NCI-H647; first compound 0.8 µM) of the same compound?
Its relative viability is 0.61.

And the relative viability (NCI-H647; first compound 2.53 µM)?
The relative viability was 0.28.

And the relative viability (NCI-H650; first compound 0.08 µM)?
The relative viability was 0.474.

What about the relative viability (NCI-H650; first compound 0.253 µM) of the same compound?
The relative viability was 0.494.

What about the relative viability (NCI-H650; first compound 0.8 µM) of the same compound?
Its relative viability is 0.439.

And the relative viability (NCI-H650; first compound 2.53 µM)?
Its relative viability is 0.414.

What about the relative viability (NCI-H727; first compound 0.08 µM) of the same compound?
The relative viability was 0.732.

And the relative viability (NCI-H727; first compound 0.253 µM)?
The relative viability was 0.353.

And the relative viability (NCI-H727; first compound 0.8 µM)?
The relative viability was 0.635.

And the relative viability (NCI-H727; first compound 2.53 µM)?
The relative viability was 0.542.

What about the relative viability (NCI-H838; first compound 0.08 µM) of the same compound?
The relative viability was 0.649.

And the relative viability (NCI-H838; first compound 0.253 µM)?
Its relative viability is 0.557.

And the relative viability (NCI-H838; first compound 0.8 µM)?
Its relative viability is 0.521.

And the relative viability (NCI-H838; first compound 2.53 µM)?
The relative viability was 0.395.
